Patent US20100056524A1, “Compound” (priority 2008, published 2010)
Counter-ions that a name gives are not always drawn. Like-named read-outs stand apart in the source and are kept apart here.

Experiments:
RSK1 = target: T1, RSK1 (Homo sapiens, UniProt Q15418); assay: RSK1 protein kinase assay; format: biochemical; conditions: for remaining activity at 10 µM: 10 μM compound; for residual kinase activity RSK1: 1 μm compound; for remaining activity at 1 µM: 1 μM compound
T1 construct: All protein kinases were of human origin and encoded full length proteins, unless indicated otherwise; made in house
Text: All protein kinases were of human origin and encoded full length proteins, unless indicated otherwise. They were either expressed as glutathione S-transferase (GST) fusion proteins in Escherichia Coli or as hexahistidine (His6)-tagged proteins in insect Sf21 cells. GST fusion proteins were purified by affinity chromatography on glutathione-Sepharose, and His6-tagged proteins on nickel/nitriloacetate-agarose. The procedures for expressing some of the protein kinases used herein have been detailed previously.^8,9 The following sections outline the DNA vectors synthesised and the procedures used to express and purifying protein kinases that have not been reported previously.
All assays (25.5 μl) were carried out at room temperature (21° C.) and were linear with respect to time and enzyme concentration under the conditions used. Assays were performed for 30 min using Multidrop Micro reagent dispensers (Thermo Electron Corporation, Waltham, Mass. 02454, USA) in a 96-well format. The concentration of magnesium acetate in the assays was 10 mM and the [γ-33P] ATP (800 cpm/pmol) was used at 5, 20 or 50 μM as indicated, in order to be at or below the Km for ATP for each enzyme. Protein kinases assayed at 5 μM ATP were: —ERK1, ERK8, PKBα, MARK3, Aurora C. Protein kinases assayed at 20 μM ATP were: —JNK1, PDK1, CHK1, CHK2, CDK2 and Aurora B. Protein kinases assayed at 50 μM ATP were: —MNK2, IKKepsilon and TBK1.
The assays were initiated with MgATP, stopped by addition of 5 μl of 0.5 M orthophosphoric acid and spotted on to P81 filterplates using a unifilter harvester (PerkinElmer, Boston, Mass. 02118, USA). The IC50 values of inhibitors were determined after carrying out assays at 10 different concentrations of each compound.
Unless stated otherwise, enzymes were diluted in 50 mM Tris/HCl pH 7.5, 0.1 mM EGTA, 1 mg/ml BSA, 0.1% (v/v) 2-mercaptoethanol and assayed in 50 mM Tris/HCl pH 7.5, 0.1 mM EGTA, 0.1% (v/v) 2-mercaptoethanol.

TBK1 = target: T2, TBK1 (Homo sapiens, UniProt Q9UHD2); assay: TBK1 protein kinase assay ([γ-33P]ATP, P81 filterplates); format: biochemical
T2 construct: All protein kinases were of human origin and encoded full length proteins, unless indicated otherwise; His6; made in house; host or cells: insect Sf21 cells
T2 sequence (Q9UHD2 1-729): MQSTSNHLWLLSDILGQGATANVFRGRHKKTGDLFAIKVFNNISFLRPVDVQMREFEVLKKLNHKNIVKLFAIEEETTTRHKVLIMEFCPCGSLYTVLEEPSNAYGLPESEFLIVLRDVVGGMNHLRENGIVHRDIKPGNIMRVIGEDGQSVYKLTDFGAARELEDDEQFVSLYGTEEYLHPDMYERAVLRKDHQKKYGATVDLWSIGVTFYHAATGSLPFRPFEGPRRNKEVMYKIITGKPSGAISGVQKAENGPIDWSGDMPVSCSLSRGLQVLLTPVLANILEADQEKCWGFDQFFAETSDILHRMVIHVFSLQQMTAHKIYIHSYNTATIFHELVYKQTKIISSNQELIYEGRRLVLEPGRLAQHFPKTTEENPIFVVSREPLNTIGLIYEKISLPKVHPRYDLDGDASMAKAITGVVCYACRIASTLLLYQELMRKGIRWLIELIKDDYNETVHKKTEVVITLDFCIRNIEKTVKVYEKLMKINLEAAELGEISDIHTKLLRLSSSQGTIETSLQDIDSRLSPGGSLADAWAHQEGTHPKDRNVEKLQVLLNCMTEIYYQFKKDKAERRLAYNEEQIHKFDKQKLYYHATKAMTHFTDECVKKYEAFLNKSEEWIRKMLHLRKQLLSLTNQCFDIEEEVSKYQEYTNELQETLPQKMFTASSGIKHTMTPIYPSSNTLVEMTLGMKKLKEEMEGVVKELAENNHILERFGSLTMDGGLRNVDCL
Outline: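 Human TBK1 assayed for 30 min with peptide substrate (300 μM), 50 μM [γ-33P]ATP and 10 mM magnesium acetate in 50 mM Tris/HCl pH 7.5, 0.1 mM EGTA, 0.1% 2-mercaptoethanol. Stopped with orthophosphoric acid and counted on P81 filters. IC50 from 10 compound concentrations.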

[1] = tested on: panel of different kinases; assay: Selectivity across kinase panel (Gini coefficient); format: biochemical, human; conditions: for GINI Coefficient: value between 0 and 1, higher = more selective
Text: Table compares the activity of Example 23 with cyclobutanecarboxylic acid {3-[5-bromo-2-(3-fluoro-phenylamino)-pyrimidin-4-ylamino]-propyl}-amide (Compound A)^13, against a panel of different kinases, where the residual kinase activity, in %, at two concentrations of the compounds is expressed. The higher the percentage residual activity, the lower the degree of inhibition of the kinase.

[2] = read-out: residual kinase activity RSK1
[3] = RSK1, read-out: residual kinase activity
[4] = 50 μM ATP, read-out: Potency (TBK1 IC50 potency score)
[5] = Table 2, 50 μM ATP, read-out: TBK1 IC50

T1 sequence (Q15418 whole entry): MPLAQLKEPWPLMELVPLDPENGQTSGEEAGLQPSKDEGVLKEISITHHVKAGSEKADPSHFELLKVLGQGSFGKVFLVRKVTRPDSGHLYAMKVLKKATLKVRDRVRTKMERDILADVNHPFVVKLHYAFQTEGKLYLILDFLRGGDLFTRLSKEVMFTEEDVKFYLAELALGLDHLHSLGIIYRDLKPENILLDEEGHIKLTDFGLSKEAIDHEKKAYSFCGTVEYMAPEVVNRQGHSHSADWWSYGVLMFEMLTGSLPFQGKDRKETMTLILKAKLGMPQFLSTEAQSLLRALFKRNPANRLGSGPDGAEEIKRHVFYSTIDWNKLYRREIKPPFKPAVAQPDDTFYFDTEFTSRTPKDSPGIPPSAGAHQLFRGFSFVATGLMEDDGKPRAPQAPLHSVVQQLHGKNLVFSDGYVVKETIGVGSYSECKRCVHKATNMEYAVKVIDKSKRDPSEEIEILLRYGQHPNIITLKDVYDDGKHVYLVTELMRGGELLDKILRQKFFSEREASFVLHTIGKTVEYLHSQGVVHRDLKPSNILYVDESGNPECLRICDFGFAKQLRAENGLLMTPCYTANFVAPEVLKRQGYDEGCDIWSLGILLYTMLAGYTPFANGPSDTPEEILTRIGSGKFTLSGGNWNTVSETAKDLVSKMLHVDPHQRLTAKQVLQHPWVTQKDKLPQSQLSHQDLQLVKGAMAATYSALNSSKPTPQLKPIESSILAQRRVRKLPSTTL

`O=C(NCCCNc1nc(Nc2cccc(F)c2)ncc1Br)C1CCC1` [Compound A, cyclobutanecarboxylic acid {3-[5-bromo-2-(3-fluoro-phenylamino)-pyrimidin-4-ylamino]-propyl}-amide, reference compound] was tested, and the remaining activity at 10 µM (RSK1; [2]) was 9%, the “residual kinase activity RSK1” value (RSK1) was 27% and the IC50 (TBK1; read-out: TBK1 IC50) was 2 nM. The “GINI Coefficient” value ([1]; @ 10 μM) was 0.19 and the GINI Coefficient ([1]; in words) was “significantly lower value than Example 23”.
With `O=C(NCCCNc1nc(Nc2cccc(F)c2)ncc1C1CC1)C1CCC1` [Example 23, Cyclobutanecarboxylic acid {3-[5-cyclopropyl-2-(3-fluoro-phenylamino)-pyrimidin-4-ylamino]-propyl}-amide] the remaining activity at 10 µM (RSK1; [2]) was 24%, the “residual kinase activity RSK1” value (RSK1) was 47% and the remaining activity at 1 µM (RSK1; [3]) was 47%. The remaining activity at 10 µM (RSK1; [3]) was 24%, the IC50 (TBK1; [4]) was less than 100 nM and the IC50 (TBK1; [5]) was 4 nM. For the same compound, the IC50 (TBK1; Table 5, 50 μM ATP, read-out: TBK1 IC50) was 4 nM, the “fold more active against TBK1 than Compound B or Compound C” value (TBK1; from TBK1 IC50 values of Table 5) was greater than 250 fold and the IC50 (TBK1; read-out: TBK1 IC50) was 4 nM. For the same compound, the “GINI Coefficient” value ([1]; @ 10 μM) was 0.35 and the “selectivity across kinase panel” value ([1]; in words) was “significant improvement of selectivity across this kinase panel”.
With `O=C(NCCCNc1nc(Nc2cccc(N3CCCC3=O)c2)ncc1C1CC1)c1cccs1` [Example 47, Thiophene-2-carboxylic acid (3-{5-cyclopropyl-2-[3-(2-oxo-pyrrolidin-1-yl)-phenylamino]-pyrimidin-4-ylamino}-propyl)-amide. Hydrochloride salt] the remaining activity at 1 µM (RSK1; [3]) was 45% and the remaining activity at 10 µM (RSK1; [3]) was 10%.
With `O=C(NCCCNc1nc(Nc2cccnc2)ncc1C1CC1)c1cccs1` [Example 50, Thiophene-2-carboxylic acid {3-[5-cyclopropyl-2-(pyridin-3-ylamino)-pyrimidin-4-ylamino]-propyl}-amide] the remaining activity at 1 µM (RSK1; [3]) was 49%, the remaining activity at 10 µM (RSK1; [3]) was 20% and the IC50 (TBK1; [4]) was 100 to 1000 nM. For the same compound, the IC50 (TBK1; [5]) was 108 nM.
